From US6855518B2, “Anti-listeria bacteriocin” (Rhodia Chimie, priority 2000, dated 2005)
“Also recorded” adds a separate entry of the source. Ends that are not written are not given here.

Tests used:
E. faecium ENSAIA 631 = assay: Well test of bacteriocin activity (inhibition zones on agar); type: cell-based, Enterococcus faecium
Description: (§1) • Bacterial strains and culture media. Lactobacillus sakei 2512 is cultured at 30° C. in MRS medium (DIFCO Laboratories) sterilised for 12 minutes at 110° C. The indicator strains are cultured in BHI medium (brain-heart infusion; DIFCO Laboratories) at 37° C. • Test of activity. BHI medium, supplemented with 10 g/l agar, is inoculated at 1% with a preculture of the indicator strain in stationary phase before being poured into a Petri dish. 50 microliters of sakacin G solution are placed in wells formed in cooled agar with a hole punch. The bacteriocin activity manifests itself in the appearance of inhibition zones around the wells after incubation overnight at 37° C. • Protein analysis. Sakacin G is analysed by mass spectrometry using a Perkin-Elmer Sciex API 165 device equipped with an Ionspray ionisation source. After lyophilisation, the active HPLC fraction is taken up in an acetonitrile/water solution (1:1) containing 0.1% formic acid, and then injected by infusion at a rate of 5 μl/minute.
(§2) The sakacin G sensitivity of 17 bacterial strains was tested by the well test method (see Materials and Methods).

Listeria strains = assay: Inhibition spectrum, for Listeria; type: cell-based; conditions: all the Listeria strains tested
Description: as §1, §2

Lb brevis DSM 20054 = assay: Well test of bacteriocin activity (inhibition zones on agar); type: cell-based, Lactobacillus brevis
Description: as §1, §2

Lb. casei DSM 20011 = assay: as above; type: cell-based, Lactobacillus casei
Description: as §1, §2

P. cerevisiae IP 5492 = assay: as above; type: cell-based, Pediococcus cerevisiae
Description: as §1, §2

E. faecalis IP 5430 = assay: as above; type: cell-based, Enterococcus faecalis; conditions: 50 microliters of sakacin G solution, BHI agar, overnight at 37° C.
Description: as §1, §2

E. faecalis ENSAIA 636 = assay: as above; type: cell-based, Enterococcus faecalis; conditions: 50 microliters of sakacin G solution, BHI agar, overnight at 37° C.
Description: as §1, §2

L. inocua 8811 = assay: as above; type: cell-based; conditions: 50 microliters of sakacin G solution, BHI agar, overnight at 37° C.
Description: as §1, §2

[1] = tested on: Ln. Paramesenteroides DSM 20288; assay: as above; type: cell-based; conditions: 50 microliters of sakacin G solution, BHI agar, overnight at 37° C.
Description: as §1, §2

[2] = tested on: Lb. Delbrueckii DSM 20081; assay: as above; type: cell-based
Description: as §1, §2

[3] = tested on: P. acidilactici ENSAIA 583; assay: as above; type: cell-based; conditions: 50 microliters of sakacin G solution, BHI agar, overnight at 37° C.
Description: as §1, §2

[4] = tested on: Ln. Mesenteroides DSM 20240; assay: as above; type: cell-based; conditions: 50 microliters of sakacin G solution, BHI agar, overnight at 37° C.
Description: as §1, §2

[5] = tested on: Ln. Mesenteroides DSM 20484; assay: as above; type: cell-based; conditions: 50 microliters of sakacin G solution, BHI agar, overnight at 37° C.
Description: as §1, §2

Lc. lactis ATCC11454 = assay: as above; type: cell-based; conditions: 50 microliters of sakacin G solution, BHI agar, overnight at 37° C.
Description: as §1, §2

Enterococcus faecalis = assay: Inhibition spectrum, Enterococcus faecalis; type: cell-based
Description: as §1, §2

Lb. Plantarum DSM 20174 = assay: Well test of bacteriocin activity (inhibition zones on agar); type: cell-based, Lactobacillus plantarum
Description: as §1, §2

Lb. sakei 2515 = assay: as above; type: cell-based, Lactobacillus sakei
Description: as §1, §2

L. ivanovi BUG 496 = assay: as above; type: cell-based, Listeria ivanovii
Description: as §1, §2

E. durans ENSAIA 630 = assay: as above; type: cell-based, Enterococcus durans
Description: as §1, §2

**Q.** “sakacin G: class IIa anti-Listeria bacteriocin polypeptide from Lactobacillus sakei 2512, about 3834 Da, two disulfide bridges; mature sequence SEQ ID NO: 12 (KYYGNGVSCNSHGCSVNWGQAWTCGVNHLANGGHGVC; disulfide (positions not given here))” was tested. Which “Bacteriocin activity (in words)” value (E. faecium ENSAIA 631; Enterococcus faecium) did it give?
**A.** inactive; also recorded: not against Enterococcus faecium

**Q.** What about the “Radius of the inhibition halos” value (E. faecium ENSAIA 631; well test, 50 microliters of sakacin G solution, BHI agar, overnight at 37° C., E. faecium ENSAIA 631) of the same substance?
**A.** 0 mm

**Q.** What about the “Bacteriocin activity (in words)” value (Listeria strains) of the same substance?
**A.** especially effective; also recorded: active

**Q.** And the “Bacteriocin activity (in words)” value (Lb brevis DSM 20054; Lactobacillus brevis)?
**A.** inactive

**Q.** What about the “Radius of the inhibition halos” value (Lb brevis DSM 20054; well test, 50 microliters of sakacin G solution, BHI agar, overnight at 37° C., Lb brevis DSM 20054) of the same substance?
**A.** 0 mm

**Q.** What about the “Bacteriocin activity (in words)” value (Lb. casei DSM 20011; Lactobacillus casei) of the same substance?
**A.** inactive

**Q.** And the “Radius of the inhibition halos” value (Lb. casei DSM 20011; well test, 50 microliters of sakacin G solution, BHI agar, overnight at 37° C., Lb. casei DSM 20011)?
**A.** 0 mm

**Q.** What about the “Bacteriocin activity (in words)” value (P. cerevisiae IP 5492; Pediococcus cerevisiae) of the same substance?
**A.** especially effective

**Q.** And the “Radius of the inhibition halos” value (P. cerevisiae IP 5492; well test, 50 microliters of sakacin G solution, BHI agar, overnight at 37° C., P. cerevisiae IP 5492)?
**A.** 1 mm

**Q.** What about the “Radius of the inhibition halos” value (E. faecalis IP 5430) of the same substance?
**A.** 2 mm

**Q.** And the “Radius of the inhibition halos” value (E. faecalis ENSAIA 636)?
**A.** 1 mm

**Q.** And the “Radius of the inhibition halos” value (L. inocua 8811)?
**A.** 3 mm

**Q.** What about the “Radius of the inhibition halos” value [1] of the same substance?
**A.** 0 mm

**Q.** What about the “Bacteriocin activity (in words)” value ([2]; Lactobacillus debrueckii) of the same substance?
**A.** inactive

**Q.** And the “Radius of the inhibition halos” value ([2]; well test, 50 microliters of sakacin G solution, BHI agar, overnight at 37° C., Lb. Delbrueckii DSM 20081)?
**A.** 0 mm

**Q.** What about the “Radius of the inhibition halos” value [3] of the same substance?
**A.** 0 mm

**Q.** What about the “Radius of the inhibition halos” value [4] of the same substance?
**A.** 0 mm

**Q.** And the “Radius of the inhibition halos” value [5]?
**A.** 0 mm

**Q.** What about the “Radius of the inhibition halos” value (Lc. lactis ATCC11454) of the same substance?
**A.** 0 mm

**Q.** And the “Bacteriocin activity (in words)” value (Enterococcus faecalis)?
**A.** especially effective; also recorded: active

**Q.** And the “Bacteriocin activity (in words)” value (Lb. Plantarum DSM 20174; Lactobacillus plantarum)?
**A.** inactive

**Q.** And the “Radius of the inhibition halos” value (Lb. Plantarum DSM 20174; well test, 50 microliters of sakacin G solution, BHI agar, overnight at 37° C., Lb. Plantarum DSM 20174)?
**A.** 0 mm

**Q.** And the “Bacteriocin activity (in words)” value (Lb. sakei 2515; strains of Lactobacillus sakei other than Lactobacillus sakei 2512)?
**A.** especially effective

**Q.** And the “Radius of the inhibition halos” value (Lb. sakei 2515; well test, 50 microliters of sakacin G solution, BHI agar, overnight at 37° C., Lb. sakei 2515)?
**A.** 1 mm

**Q.** What about the “Activity of the purified HPLC fraction (in words)” value (L. ivanovi BUG 496; HPLC fraction, peak at 23 minutes, Listeria ivanovii BUG 496) of the same substance?
**A.** active

**Q.** What about the “Radius of the inhibition halos” value (L. ivanovi BUG 496; well test, 50 microliters of sakacin G solution, BHI agar, overnight at 37° C., L. ivanovi BUG 496) of the same substance?
**A.** 6 mm

**Q.** And the “Bacteriocin activity (in words)” value (E. durans ENSAIA 630; Enterococcus durans)?
**A.** especially effective; also recorded: active

**Q.** What about the “Radius of the inhibition halos” value (E. durans ENSAIA 630; well test, 50 microliters of sakacin G solution, BHI agar, overnight at 37° C., E. durans ENSAIA 630) of the same substance?
**A.** 2 mm
